Source: PubChem BioAssay AID434951 (Broad Institute, 2010)
Active and inactive are the calls of the source.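 How the source made its calls: active means a fitted half-maximal concentration EC50 for the rise in nuclear signal no higher than ten times the top dose tested; inconclusive means flat fit with activity between 30% and 70%, or unusable fit; inactive means EC50 beyond ten times the top dose.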

Target: Hypoxia-inducible factor 1-alpha (Homo sapiens) (UniProt Q16665)
Assay: HIF pathway activation, GFP-HIF1alpha translocation – imaging, fluorescence, U2OS GFP-HIF1alpha, confirmation (AID 434951)
Conditions: U2OS GFP-HIF1alpha nuclear intensity, high-content imaging

Hypoxia-inducible factor 1-alpha (Homo sapiens), sequence (Q16665 whole entry, looked up): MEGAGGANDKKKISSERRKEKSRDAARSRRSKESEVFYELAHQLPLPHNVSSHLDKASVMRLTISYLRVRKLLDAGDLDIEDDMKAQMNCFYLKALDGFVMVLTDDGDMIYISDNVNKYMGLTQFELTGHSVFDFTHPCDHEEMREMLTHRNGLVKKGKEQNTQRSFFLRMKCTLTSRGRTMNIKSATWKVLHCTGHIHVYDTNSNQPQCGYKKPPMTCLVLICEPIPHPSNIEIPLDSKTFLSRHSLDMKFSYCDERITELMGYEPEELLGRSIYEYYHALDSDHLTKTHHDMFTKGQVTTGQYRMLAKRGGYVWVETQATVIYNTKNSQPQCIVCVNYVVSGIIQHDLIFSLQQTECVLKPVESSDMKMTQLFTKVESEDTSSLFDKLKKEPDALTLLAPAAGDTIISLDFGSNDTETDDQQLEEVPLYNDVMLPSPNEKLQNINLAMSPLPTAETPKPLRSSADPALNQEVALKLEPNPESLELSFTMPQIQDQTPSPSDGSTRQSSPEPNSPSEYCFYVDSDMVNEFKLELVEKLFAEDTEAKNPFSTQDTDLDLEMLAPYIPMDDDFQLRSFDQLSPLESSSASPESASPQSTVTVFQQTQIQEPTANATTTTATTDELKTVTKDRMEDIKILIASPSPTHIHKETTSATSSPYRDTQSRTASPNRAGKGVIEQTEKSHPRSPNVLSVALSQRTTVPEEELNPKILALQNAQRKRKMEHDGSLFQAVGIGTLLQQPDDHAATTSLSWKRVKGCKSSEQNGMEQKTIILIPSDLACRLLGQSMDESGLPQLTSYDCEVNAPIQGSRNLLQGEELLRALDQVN

SMILES	EC50
Cc1ccc(/C=N\Nc2nc3ccc(Cl)cc3[nH]2)o1	> 35 µM (inactive)
FC(F)(F)c1ccc2c(c1)NP(=S)(N1CCOCC1)c1nccn1-2 (stereo unspecified)	> 35 µM (inactive)
Cn1ncc(Br)c1C(=O)OCC(=O)Nc1nc(-c2ccccc2)cs1	> 35 µM (inactive)
Cc1cc(N/N=C/c2ccc(O)cc2O)nc(-c2ccccc2O)n1	4.53 µM
COc1cccc(/C=N/Nc2ncnc3c2ncn3Cc2ccccc2)c1O	5.97 µM
COc1cc(C(=O)Nc2sc(C)c(C)c2C(=O)O)cc(OC)c1OC	> 35 µM (inactive)
Cc1ccc(C(=O)CSc2ccc(-c3ccncc3)nn2)cc1	> 35 µM (inactive)
CCn1c(N2CCC(Cc3ccccc3)CC2)nc2c1c(=O)[nH]c(=O)n2C	> 35 µM (inactive)
Cc1[nH]n(-c2ccccc2)c(=O)c1N=Nc1ccc2c(c1)OCCO2	> 35 µM (inactive)
O=C(N/N=C\c1c(O)ccc2ccccc12)c1cncc(Br)c1	6.48 µM
CCN(CC)CCNCc1nc2ccccc2c(=O)n1-c1ccc(F)cc1	> 35 µM (inactive)
Oc1ccc(CN2CCN(Cc3ccccc3)CC2)c2cccnc12	> 35 µM (inactive)
CCC(=O)NC(c1ccc(Cl)cc1Cl)c1ccc2cccnc2c1O (stereo unspecified)	6.22 µM
CCOC(=O)C1=C(C)NC(C)=C(C(=O)OCC)C1C(=O)OCC(=O)N(C)C1CCS(=O)(=O)C1 (stereo unspecified)	> 35 µM (inactive)
CCOC(=O)C(NC(C)=O)(N1CCOCC1)C(F)(F)F (stereo unspecified)	> 35 µM (inactive)
COC(=O)Cc1ccc(NC(=S)NC(C)(C)C)cc1	> 35 µM (inactive)
Oc1ccc(/C=N/NC(=S)NC2CC3CCC2C3)cc1 (stereo unspecified)	> 35 µM (inactive)
O=C(CSC1c2ccccc2-c2ccccc21)N/N=C/c1ccccc1O	6.46 µM
COc1cccc(-c2cc(C(F)(F)F)n3nc(C(=O)N4CCC5(CC4)OCCO5)cc3n2)c1	> 35 µM (inactive)
COc1ccccc1C/C(N)=N/O	> 35 µM (inactive)
CCOc1cc(/C=N/NC(=O)c2c(-c3ccccc3)noc2C)ccc1O	> 35 µM (inactive)

SMILES	EC50
Oc1ccccc1/C=N/Nc1nc2ccccc2o1	8.18 µM
Cc1ccc(/C=N/NC(=O)c2c(-c3ccccc3)noc2C)c(O)c1	6.81 µM
O=C(N/N=C/c1ccc(O)c(O)c1O)/C(=C/c1ccc([N+](=O)[O-])cc1)NC(=O)c1ccccc1	> 35 µM (inactive)
COc1ccc(C(=O)Nc2ccc(C(=O)NCCc3ccc(OC)c(OC)c3)cc2)cc1	> 35 µM (inactive)
Oc1c(C(Nc2cccc(C(F)(F)F)c2)c2ccncc2)ccc2cccnc12 (stereo unspecified)	6.49 µM
O=C(Cn1c(Cc2ccccc2)nc2ccccc21)NCc1ccc2c(c1)OCO2	> 35 µM (inactive)
O=C(NNC(=O)C(O)(c1ccccc1)c1ccccc1)C1CC1	> 35 µM (inactive)
CCNS(=O)(=O)c1ccc(NC(=O)c2cncc(Br)c2)cc1	> 35 µM (inactive)
CCc1cc(C(=O)N/N=C/c2ccc(O)cc2O)c2ccccc2n1	17.5 µM
O=C(NCCc1csc(-c2cccc(F)c2)n1)c1ccco1	> 35 µM (inactive)
Cc1nc2cc(-c3ccccc3)sc2c(=O)n1N	> 35 µM (inactive)
c1ccc(-c2nnc(-c3ccccn3)nc2NC2CCCCC2)cc1	6.78 µM
CC1CCN(Cc2c(C(=O)N/N=C/c3ccccc3O)nnn2-c2nonc2N)CC1	> 35 µM (inactive)
CCCCn1c(/C=N/Nc2nc3ccccc3[nH]2)nc2ccccc21	7.81 µM
CCC(=NCc1cc(OC)cc(OC)c1)c1c(O)[nH]c(=O)[nH]c1=O	> 35 µM (inactive)
Cc1nnc(-c2ccccc2)nc1N(C)C	> 35 µM (inactive)
CCn1nc(C(=O)OCC(=O)NC(C)C)c2ccccc2c1=O	> 35 µM (inactive)
Cc1ccc(S(=O)(=O)N2CCOC23CCN(C(=O)c2cc(Cl)ccc2Cl)CC3)cc1	> 35 µM (inactive)
CCN(CCN(C)C)C(=O)C1CCN(S(=O)(=O)c2c(C)noc2/C=C/c2ccccc2F)CC1	10.4 µM
COc1cccc(/C=N/NC(=O)CNC(=O)C(c2ccccc2)c2ccccc2)c1O	> 35 µM (inactive)
